Laboratory results as given in ChEMBL document CHEMBL1201862, “PubChem BioAssay data set” (2004).
Activity calls are given as the source filed them.

Assays:
[1] = biological target: T1, DNA repair and recombination protein RAD54-like (Homo sapiens, UniProt Q92698); experiment: RAD54 Holliday junction migration blockers – biochemical, fluorescence, cherry-picked samples, dose series, confirmation (AID 651657); type: functional
T1 sequence (Q92698 whole entry): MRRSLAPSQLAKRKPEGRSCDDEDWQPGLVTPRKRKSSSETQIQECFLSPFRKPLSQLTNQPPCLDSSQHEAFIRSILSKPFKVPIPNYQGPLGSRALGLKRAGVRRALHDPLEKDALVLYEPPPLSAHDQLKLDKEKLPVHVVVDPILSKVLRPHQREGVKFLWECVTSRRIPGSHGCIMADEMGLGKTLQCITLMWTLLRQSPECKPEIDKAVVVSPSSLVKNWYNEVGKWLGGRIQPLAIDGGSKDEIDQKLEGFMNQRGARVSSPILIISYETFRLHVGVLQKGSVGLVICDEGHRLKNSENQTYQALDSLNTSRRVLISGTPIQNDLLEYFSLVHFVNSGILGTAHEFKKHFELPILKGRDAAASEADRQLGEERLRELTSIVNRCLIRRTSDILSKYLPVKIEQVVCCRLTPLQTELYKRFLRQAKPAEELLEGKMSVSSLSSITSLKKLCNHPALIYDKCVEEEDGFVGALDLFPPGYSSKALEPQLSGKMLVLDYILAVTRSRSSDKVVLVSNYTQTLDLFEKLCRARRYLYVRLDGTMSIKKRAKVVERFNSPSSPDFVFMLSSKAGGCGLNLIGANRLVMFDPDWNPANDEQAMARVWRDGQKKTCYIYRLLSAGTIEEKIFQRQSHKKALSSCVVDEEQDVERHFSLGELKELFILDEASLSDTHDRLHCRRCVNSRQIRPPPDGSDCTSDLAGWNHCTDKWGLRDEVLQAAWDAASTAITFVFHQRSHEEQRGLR

[2] = biological target: DNA repair protein RAD52 homolog (Homo sapiens, UniProt P43351); type: functional, biochemical
[3] = NIH3T3 cell viability loss – ATP luminescence, mouse fibroblasts, counter-screen, dose response (AID 2010); type: functional, cell-based;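 also: cells exposed to compound for about 90 hours before reading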
[4] = biological target: Voltage-dependent T-type calcium channel subunit alpha-1H (Homo sapiens, UniProt O95180); type: functional;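 also: channel activity triggered by adding a high calcium stimulation buffer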
[5] = Trypanosoma cruzi growth suppression in host cells – NIH3T3 host cells, beta-gal luminescence, confirmation (AID 2044); type: functional, cell-based;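 also: intracellular parasites grown in NIH/3T3 mouse fibroblasts as host cells; luminescent beta-galactosidase reporter signal from transgenic T. cruzi replicating inside host cells; inhibitors lower the luminescence signal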
Beta-galactosidase = Beta-galactosidase (Escherichia coli, UniProt Q8VNN2); experiment: Dose response counterscreen for EBI2 assay utilizing the enzyme, b-galactosidase.; type: functional
[6] = biological target: T2, Corticotropin-releasing factor receptor 2/Corticotropin-releasing factor-binding protein (Homo sapiens, UniProt P24387+Q13324); experiment: activators of CRF receptor 2 with binding protein – uHTS hits, confirmation (AID 602473); type: functional; settings: read-out: EC50_Mean
T2 sequence (Q13324 whole entry): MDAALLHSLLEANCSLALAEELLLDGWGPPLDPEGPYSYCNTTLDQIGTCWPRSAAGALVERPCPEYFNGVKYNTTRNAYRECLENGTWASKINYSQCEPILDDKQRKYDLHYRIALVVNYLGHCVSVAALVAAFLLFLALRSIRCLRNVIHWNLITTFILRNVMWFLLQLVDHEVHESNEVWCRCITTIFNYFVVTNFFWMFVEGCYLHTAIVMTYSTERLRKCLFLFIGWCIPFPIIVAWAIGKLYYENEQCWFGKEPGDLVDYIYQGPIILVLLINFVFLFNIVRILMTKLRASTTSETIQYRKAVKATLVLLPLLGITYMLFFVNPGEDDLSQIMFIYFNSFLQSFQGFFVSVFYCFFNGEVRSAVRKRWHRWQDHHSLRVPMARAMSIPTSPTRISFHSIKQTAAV
T2 sequence (P24387 whole entry): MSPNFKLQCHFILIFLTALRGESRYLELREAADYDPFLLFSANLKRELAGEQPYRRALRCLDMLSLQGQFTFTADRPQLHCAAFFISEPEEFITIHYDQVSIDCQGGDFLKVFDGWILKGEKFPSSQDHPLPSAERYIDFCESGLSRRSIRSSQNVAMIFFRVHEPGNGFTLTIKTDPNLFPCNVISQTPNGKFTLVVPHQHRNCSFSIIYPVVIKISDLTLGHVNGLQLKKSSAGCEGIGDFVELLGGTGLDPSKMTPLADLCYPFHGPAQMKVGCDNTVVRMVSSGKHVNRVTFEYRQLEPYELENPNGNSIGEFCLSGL

[7] = biological target: T2, Corticotropin-releasing factor receptor 2/Corticotropin-releasing factor-binding protein; experiment: Dose Response confirmation of uHTS hits for small molecule antagonists of the CRF-binding protein and CRF-R2 receptor complex.; type: functional; settings: read-out: IC50_Mean
[8] = biological target: T3, Heat shock factor protein 1 (Mus musculus, UniProt P38532); experiment: decrease of HSF1-responsive luciferase luminescence – cell-based, NIH3T3, dose retest, confirmation (AID 2382); type: functional;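 also: NIH3T3 fibroblasts with HSF1-driven luciferase reporter stressed by proteasome inhibitor MG132; luminescence from HSF1-driven luciferase expression after 8 hours of MG132 stress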
T3 sequence (P38532 whole entry): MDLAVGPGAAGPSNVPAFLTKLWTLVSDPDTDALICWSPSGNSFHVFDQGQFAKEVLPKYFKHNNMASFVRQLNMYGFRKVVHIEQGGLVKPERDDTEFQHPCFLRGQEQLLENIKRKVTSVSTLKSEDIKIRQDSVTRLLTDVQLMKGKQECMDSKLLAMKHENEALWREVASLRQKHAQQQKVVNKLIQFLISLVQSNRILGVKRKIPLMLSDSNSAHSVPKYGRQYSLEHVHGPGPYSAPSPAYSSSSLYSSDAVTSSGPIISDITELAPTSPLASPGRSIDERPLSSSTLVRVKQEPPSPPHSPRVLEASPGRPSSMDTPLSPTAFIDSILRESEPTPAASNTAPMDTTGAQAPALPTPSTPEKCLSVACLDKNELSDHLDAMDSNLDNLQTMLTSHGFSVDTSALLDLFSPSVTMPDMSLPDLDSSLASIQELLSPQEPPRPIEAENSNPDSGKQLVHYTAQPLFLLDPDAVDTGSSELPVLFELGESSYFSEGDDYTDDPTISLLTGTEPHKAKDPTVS

[9] = biological target: Fructose-bisphosphate aldolase (Mycobacterium tuberculosis, UniProt P9WQA3); experiment: Fluorescence-based biochemical high throughput dose response assay for inhibitors of the fructose-bisphosphate aldolase (FBA) of M. tuberculosis.; type: functional
[10] = viability loss in CEM21 cells – cell-based, CellTiter-Glo luminescence, cherry-picked, cytotoxicity control for viral fusion inhibitor project, dose response (AID 652042); type: functional;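 also: potency for signal decrease meaning cytotoxicity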
[11] = general mammalian cell viability loss – inhibitor set, cherry-pick, set 2, cytotoxicity control for miR-122 modulator project, dose response (AID 720697); type: functional, cell-based

Sequence of Fructose-bisphosphate aldolase (P9WQA3 whole entry, the tested form may be a part): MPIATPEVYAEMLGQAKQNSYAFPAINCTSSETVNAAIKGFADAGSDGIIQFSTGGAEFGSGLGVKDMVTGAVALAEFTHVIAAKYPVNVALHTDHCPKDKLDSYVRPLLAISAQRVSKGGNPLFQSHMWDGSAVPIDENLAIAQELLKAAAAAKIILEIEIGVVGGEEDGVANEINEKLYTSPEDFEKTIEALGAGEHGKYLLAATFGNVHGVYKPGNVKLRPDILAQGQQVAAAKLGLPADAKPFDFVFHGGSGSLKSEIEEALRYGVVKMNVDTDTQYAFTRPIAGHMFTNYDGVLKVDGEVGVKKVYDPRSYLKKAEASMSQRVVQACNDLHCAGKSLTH
Sequence of Beta-galactosidase (Q8VNN2 whole entry): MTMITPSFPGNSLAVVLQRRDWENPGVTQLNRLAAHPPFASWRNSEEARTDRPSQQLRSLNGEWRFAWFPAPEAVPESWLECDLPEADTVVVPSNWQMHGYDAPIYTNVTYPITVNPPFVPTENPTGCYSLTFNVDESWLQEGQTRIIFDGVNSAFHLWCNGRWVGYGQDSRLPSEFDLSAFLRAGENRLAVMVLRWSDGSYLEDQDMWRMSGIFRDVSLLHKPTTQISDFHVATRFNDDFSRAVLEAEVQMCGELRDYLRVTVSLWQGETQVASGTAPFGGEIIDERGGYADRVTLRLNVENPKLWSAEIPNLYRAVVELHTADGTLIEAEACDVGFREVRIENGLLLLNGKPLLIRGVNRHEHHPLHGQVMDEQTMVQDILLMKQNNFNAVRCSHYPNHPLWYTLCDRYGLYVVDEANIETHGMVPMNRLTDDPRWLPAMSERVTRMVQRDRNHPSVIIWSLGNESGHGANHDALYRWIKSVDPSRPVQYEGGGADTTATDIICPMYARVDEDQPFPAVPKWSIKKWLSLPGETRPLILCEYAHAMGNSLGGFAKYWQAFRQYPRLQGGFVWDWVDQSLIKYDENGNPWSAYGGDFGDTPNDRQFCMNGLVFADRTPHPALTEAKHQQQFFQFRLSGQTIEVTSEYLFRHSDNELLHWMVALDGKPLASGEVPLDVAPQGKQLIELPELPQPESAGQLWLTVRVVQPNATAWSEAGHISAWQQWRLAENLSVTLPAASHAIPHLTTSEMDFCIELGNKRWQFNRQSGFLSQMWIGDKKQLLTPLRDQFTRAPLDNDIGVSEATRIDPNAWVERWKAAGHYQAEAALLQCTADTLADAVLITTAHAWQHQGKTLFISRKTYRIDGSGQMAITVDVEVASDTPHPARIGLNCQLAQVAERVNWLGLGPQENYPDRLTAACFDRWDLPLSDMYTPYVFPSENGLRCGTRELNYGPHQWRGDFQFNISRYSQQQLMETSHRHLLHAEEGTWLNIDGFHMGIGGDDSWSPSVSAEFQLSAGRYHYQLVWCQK
Sequence of Voltage-dependent T-type calcium channel subunit alpha-1H (O95180 whole entry): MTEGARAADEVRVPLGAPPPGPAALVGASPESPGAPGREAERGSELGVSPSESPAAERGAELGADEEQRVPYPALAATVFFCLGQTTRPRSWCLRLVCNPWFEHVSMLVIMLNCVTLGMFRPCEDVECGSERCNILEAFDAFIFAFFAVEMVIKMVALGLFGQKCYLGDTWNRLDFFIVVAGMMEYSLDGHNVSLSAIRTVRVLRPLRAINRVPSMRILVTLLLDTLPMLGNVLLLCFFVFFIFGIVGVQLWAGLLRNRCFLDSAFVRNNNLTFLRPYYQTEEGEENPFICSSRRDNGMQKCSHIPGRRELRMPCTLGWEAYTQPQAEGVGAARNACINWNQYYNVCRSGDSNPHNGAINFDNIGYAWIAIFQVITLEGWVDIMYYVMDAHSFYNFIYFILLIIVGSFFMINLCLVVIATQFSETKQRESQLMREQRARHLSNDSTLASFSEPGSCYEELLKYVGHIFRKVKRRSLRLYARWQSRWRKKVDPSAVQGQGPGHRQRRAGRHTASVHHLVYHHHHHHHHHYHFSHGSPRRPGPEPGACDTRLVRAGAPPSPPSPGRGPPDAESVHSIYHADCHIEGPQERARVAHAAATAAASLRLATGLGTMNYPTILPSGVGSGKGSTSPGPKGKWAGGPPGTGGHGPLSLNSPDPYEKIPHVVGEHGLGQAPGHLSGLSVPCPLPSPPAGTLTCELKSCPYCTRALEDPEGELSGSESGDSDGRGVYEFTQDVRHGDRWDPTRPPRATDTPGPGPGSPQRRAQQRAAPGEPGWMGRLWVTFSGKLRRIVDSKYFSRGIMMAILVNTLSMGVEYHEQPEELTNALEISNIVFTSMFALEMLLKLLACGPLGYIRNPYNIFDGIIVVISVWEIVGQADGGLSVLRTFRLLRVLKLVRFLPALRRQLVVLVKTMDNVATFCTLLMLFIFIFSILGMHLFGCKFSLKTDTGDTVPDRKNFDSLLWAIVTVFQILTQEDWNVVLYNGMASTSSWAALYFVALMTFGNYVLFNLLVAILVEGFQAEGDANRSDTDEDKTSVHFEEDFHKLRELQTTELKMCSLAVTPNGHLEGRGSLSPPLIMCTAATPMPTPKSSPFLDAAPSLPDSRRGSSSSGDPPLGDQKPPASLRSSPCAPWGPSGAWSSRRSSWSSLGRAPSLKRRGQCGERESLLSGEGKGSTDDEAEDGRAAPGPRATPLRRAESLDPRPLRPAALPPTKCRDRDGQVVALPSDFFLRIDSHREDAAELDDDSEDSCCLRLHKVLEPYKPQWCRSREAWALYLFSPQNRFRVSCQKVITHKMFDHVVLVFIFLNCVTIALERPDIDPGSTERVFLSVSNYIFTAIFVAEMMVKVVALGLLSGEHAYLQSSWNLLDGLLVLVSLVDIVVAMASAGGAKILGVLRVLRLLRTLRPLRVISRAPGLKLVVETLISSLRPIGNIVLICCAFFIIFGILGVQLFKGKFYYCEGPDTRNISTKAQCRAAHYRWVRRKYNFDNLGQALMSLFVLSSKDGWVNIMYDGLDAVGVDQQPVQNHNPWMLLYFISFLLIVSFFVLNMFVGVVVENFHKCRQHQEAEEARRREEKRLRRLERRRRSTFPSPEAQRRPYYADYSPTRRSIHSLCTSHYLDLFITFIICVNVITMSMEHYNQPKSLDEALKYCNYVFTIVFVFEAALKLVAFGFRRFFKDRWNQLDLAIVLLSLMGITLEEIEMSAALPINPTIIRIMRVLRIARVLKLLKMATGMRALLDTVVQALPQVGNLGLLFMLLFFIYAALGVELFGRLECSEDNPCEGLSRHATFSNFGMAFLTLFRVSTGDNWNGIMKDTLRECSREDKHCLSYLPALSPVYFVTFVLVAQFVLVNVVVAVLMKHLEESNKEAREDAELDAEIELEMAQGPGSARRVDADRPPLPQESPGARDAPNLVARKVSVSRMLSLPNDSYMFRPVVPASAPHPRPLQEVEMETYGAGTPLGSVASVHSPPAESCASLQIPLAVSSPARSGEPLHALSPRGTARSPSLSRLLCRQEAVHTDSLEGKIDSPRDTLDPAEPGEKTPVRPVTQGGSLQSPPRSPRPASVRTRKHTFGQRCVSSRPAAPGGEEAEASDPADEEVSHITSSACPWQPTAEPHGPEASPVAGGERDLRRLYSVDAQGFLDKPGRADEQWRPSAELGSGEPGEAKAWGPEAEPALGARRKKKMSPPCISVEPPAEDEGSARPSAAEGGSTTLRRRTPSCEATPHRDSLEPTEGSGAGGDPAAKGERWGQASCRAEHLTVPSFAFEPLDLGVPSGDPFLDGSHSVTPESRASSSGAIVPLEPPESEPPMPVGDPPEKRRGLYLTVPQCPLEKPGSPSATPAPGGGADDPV
Sequence of DNA repair protein RAD52 homolog (P43351 whole entry): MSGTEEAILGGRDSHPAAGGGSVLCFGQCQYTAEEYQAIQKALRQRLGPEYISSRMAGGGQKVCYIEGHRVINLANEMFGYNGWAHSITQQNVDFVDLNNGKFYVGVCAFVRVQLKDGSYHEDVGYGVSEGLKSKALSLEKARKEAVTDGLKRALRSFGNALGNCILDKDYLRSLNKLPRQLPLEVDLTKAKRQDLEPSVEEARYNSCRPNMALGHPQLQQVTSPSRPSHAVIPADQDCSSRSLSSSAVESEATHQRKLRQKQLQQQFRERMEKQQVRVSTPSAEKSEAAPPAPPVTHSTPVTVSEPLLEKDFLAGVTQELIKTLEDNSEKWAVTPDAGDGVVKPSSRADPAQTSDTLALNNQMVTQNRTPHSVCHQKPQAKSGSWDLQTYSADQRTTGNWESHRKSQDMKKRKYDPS

For `COc1ccc(-c2cc3nc(NCCN4CCCC4)n(C)c(=O)c3s2)cc1OC`, the AC50 [1] was 11.6 µM (active) and the AC50 [2] was 2.43 µM (active).

In the case of `Cc1ccc(OCC(=O)N2CCN(c3nnc(-c4ccc(C)cc4)c4ccccc34)CC2)cc1`, the EC50 [3] is reported as > 60 µM (not active), the EC50 [4] is reported as 2.35 µM (active) and the EC50 [5] is reported as 3.12 µM (active). The IC50 (Beta-galactosidase) was > 80 µM (inactive), the EC50 [6] was > 53 µM (inactive) and the IC50 [7] was > 47.1 µM (inactive).

For `Cc1c(O)ccc2c(CC(=O)N[C@@H](Cc3ccc(O)cc3)C(=O)O)cc(=O)oc12`, the EC50 [8] was > 195 µM (not active) and the IC50 [9] was 0.906 µM (active).

For `CC(NNC(=S)N1CCCCCC1)c1ccc2ccccc2n1` (stereo not drawn), the AC50 [10] was 1.59 µM (active).

In the case of `CCOC(=O)c1ccc(NC(=O)c2ccc(CN3CCOCC3)cc2)cc1`, the AC50 [11] is reported as 19.3 µM (active).

In the case of `CN(C)c1ccc(-c2ccnc3c2CC(C)(C(=O)NCc2cccs2)O3)cc1` (stereo not drawn), the IC50 [9] is reported as 0.56 µM (active).
